# In US6673365B1, “Formulation for treatment of thromboembolism” (priority 1996, dated 2004):
# Assay: Bioavailability in vivo in the rat after intraduodenal administration
# Method: The formulations, A to D, respectively, were tested in vivo in the rat model using intraduodenally catheterized, nonanesthetized animals. Formulations were given as a bolus. Blood samples were withdrawn at certain time points for up to 4 hours after administration of the different formulations. The concentrations of HOOC—CH2—(R)-Cgl-Aze-Pab were analyzed in the plasma and the bioavailabilities calculated from the Area under the curve (AUC) using standard pharmacokinetic methods (Rowland and Tozer, Clinical Pharmacokinetics, concepts and applications, 1980).
# The bioavailability increased tenfold to twentyfold when the different formulations mentioned in the invention were used, as compared to controls where only phosphate buffer of pH 8 was used (1). Formulation B was also tested in human healthy subjects using enteric coated capsules for administration directly to the duodenum. The results from the human study also indicate a tenfold increased absorption as compared to a control tablet or solution of the thrombin inhibitor base only.
structure (smiles),measurement,value
"CCCCCCCC(=O)OCC(O)CO (stereo not shown) [glyceryl mono-octanoate(1-monocaprylin), glyceryl mono-octanoate]","Enhancing effect, glycerides from different sources compared",most efficient enhancing effect
